Reference: ChEMBL document CHEMBL3632565, “The use of porcupine inhibitors to target Wnt-driven cancers” (Bioorg Med Chem Lett, 2015)
Values belong to the compound of their own block, whether it stands above or below them.

Columns and labels:
[1] = molecular target: T1, Protein-serine O-palmitoleoyltransferase porcupine (Homo sapiens, UniProt Q9H237); test: (§1) Inhibition of porcupine in human HEK293 cells assessed as reduction in Wnt secretion by measuring suppression of beta-catenin reporter activity after 24 hrs by STF reporter assay; assay type: cell-based
T1 sequence (Q9H237 whole entry): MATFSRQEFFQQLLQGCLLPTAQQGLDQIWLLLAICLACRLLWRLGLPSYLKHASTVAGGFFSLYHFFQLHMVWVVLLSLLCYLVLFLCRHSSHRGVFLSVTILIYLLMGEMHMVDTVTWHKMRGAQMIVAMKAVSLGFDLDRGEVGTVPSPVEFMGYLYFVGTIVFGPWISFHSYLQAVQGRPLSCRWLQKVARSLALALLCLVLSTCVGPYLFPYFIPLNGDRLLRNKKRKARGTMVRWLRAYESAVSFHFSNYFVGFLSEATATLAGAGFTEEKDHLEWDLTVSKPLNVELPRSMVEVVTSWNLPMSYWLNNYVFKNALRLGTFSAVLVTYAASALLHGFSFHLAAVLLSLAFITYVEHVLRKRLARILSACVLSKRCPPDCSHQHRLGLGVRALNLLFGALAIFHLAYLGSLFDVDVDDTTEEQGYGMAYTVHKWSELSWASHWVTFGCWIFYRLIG

[2] = molecular target: T1, Protein-serine O-palmitoleoyltransferase porcupine; test: Inhibition of porcupine activity (unknown origin) expressed in human HT1080 cells assessed as suppression of Wnt3A-mediated super top flash activity by STF luciferase assay; assay type: cell-based, HT-1080
[3] = molecular target: T2, Protein-serine O-palmitoleoyltransferase porcupine (Homo sapiens) (UniProt Q9H237); test: Binding affinity to porcupine (unknown origin)
T2 sequence (whole entry): T1 sequence (Q9H237 whole entry)

[4] = molecular target: T1, Protein-serine O-palmitoleoyltransferase porcupine; test: Inhibition of porcupine in human HEK293 cells by STF reporter assay; assay type: cell-based
[5] = molecular target: T2, Protein-serine O-palmitoleoyltransferase porcupine (Homo sapiens); test: as §1; assay type: cell-based
[6] = molecular target: T3, Protein-serine O-palmitoleoyltransferase porcupine (Mus musculus, UniProt Q9JJJ7); test: Inhibition of mouse porcupine expressed in human HT1080 cells assessed as reduction in beta catenin reporter activity using firefly luciferase substrate STF reporter assay; assay type: cell-based, HT-1080
T3 sequence (Q9JJJ7 whole entry): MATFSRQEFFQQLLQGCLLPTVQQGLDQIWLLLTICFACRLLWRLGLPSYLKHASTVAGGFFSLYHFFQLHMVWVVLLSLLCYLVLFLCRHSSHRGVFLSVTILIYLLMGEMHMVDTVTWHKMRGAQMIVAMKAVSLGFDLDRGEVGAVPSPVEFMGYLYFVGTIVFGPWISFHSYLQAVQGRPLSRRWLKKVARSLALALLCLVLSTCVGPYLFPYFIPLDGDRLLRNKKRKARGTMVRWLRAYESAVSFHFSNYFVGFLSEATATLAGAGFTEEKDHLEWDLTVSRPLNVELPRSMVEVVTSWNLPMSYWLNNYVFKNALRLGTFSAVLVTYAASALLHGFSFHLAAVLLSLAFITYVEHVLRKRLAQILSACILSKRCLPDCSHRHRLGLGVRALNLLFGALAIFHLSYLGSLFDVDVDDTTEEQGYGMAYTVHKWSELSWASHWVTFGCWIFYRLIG

[7] = Inhibition of xenopus porcupine expressed in human HT1080 cells assessed as reduction in beta catenin reporter activity using firefly luciferase substrate STF reporter assay; assay type: cell-based; settings: ht-1080
[8] = (§2) Antitumor activity against human HPAF2 cells xenografted in Balb/c mouse assessed as tumor growth inhibition at 100 mg/kg; assay type: functional; settings: HPAF-II, read-out: TGI
HPAF-II = test: as §2; assay type: functional

Compound: C[C@H](C(=O)Nc1ccc(-c2ccsc2)cc1)n1cnc2c1c(=O)n(C)c(=O)n2C
IC50 [1]: 5400 nM

Compound: COc1ccc2nc(NC(=O)CNC(=O)c3ccc(=O)n(-c4ccccc4)c3)sc2c1
Activity [3]: > 25 µM

Compound: O=C(CNC(=O)c1nn(-c2ccccc2)c(=O)c2ccccc12)Nc1nccs1
Activity [3]: > 25 µM

Compound: Cn1c(=O)c2c(ncn2CC(=O)Nc2ccc(-c3ccccc3)nn2)n(C)c1=O [ETC-159]
inhibition [5]: Dose-dependent effect
IC50 [6]: 18.1 nM
IC50 [7]: 70 nM
inhibition in vivo at 100 mg/kg [8]: 90%
TGI (HPAF-II): Dose-dependent effect

Compound: Cc1cc(-c2ccc(CC(=O)Nc3ccc(-c4cccnc4)cc3)cc2)ccn1
IC50 [2]: 0.074 nM

More lines, now with the values ahead:

IC50 [2]: 60 nM
Compound: COc1ccc(-n2nc(C(=O)NCC(=O)Nc3nc4ccc(OC)cc4s3)c3ccccc3c2=O)cc1

IC50 [4]: 5 nM
Compound: Cn1c(=O)c2c(nc3n2[C@H](CC(=O)Nc2ccc(-c4ccccc4)nn2)CC3)n(C)c1=O

inhibition [5]: Dose-dependent effect
Compound: C[C@@H](C(=O)Nc1ccc(-c2ccsc2)cc1)n1cnc2c1c(=O)n(C)c(=O)n2C
